Article PMC10066365, “Nemacol is a small molecule inhibitor of C. elegans vesicular acetylcholine transporter with anthelmintic potential” (Nature Communications, 2023)
Like-named read-outs stand apart in the source and are kept apart here.

Test system: C. elegans unc-17 mutants
Conditions: 60 min, average of 3 biological repeats
[1] = unc-17 (e245), 15 µM, adult worms
[2] = unc-17 (e245), 30 µM, adult worms
[3] = unc-17 (e245), 60 µM, adult worms
[4] = unc-17 (e245), 120 µM, adult worms
[5] = unc-17 (e245), 240 µM, adult worms

Experimental: Significance was calculated using Fisher’s method (one-sided comparisons; see 'Methods'). […] Worms were incubated on the plates for 60 min.
Locomotor phenotype analyses were done in 24-well plates with 1 mL of MYOB substrate (27.5 g Trizma HCl, 12 g Trizma Base, 230 g bacto tryptone, 10 g NaCl, 0.4 g cholesterol (95%)) seeded with 25 µL of OP50 Escherichia coli on each well. Each compound was added to the MYOB substrate before pouring to achieve the desired final concentrations of 30 µM or 60 µM after diffusion through the media. Synchronized young adult worms are transferred into each well using a platinum wire pick. A Leica MZ75 stereomicroscope was used to visualize the movement of worms on the solid substrate. The specific dominant locomotor phenotype (i.e. ‘Punc’, ‘paralyzed’, ‘coiler’ or ‘wild-type locomotion’) was scored after the touch on the head with a platinum wire over a ~3–5 s of observation. […] Coiled animals were not scored as paralyzed despite sometimes not responding to light touch.

SMILES: O[C@@H]1CCCC[C@H]1N1CCC(c2ccccc2)CC1 (racemic) [vesamicol, reference compound]
- Fraction Coiled [1]: 0.65
- Fraction Jerky-Unc [1]: 0.35
- Fraction No Phenotype [1]: 0.00
- Fraction Parayzed [1]: 0.00
- Fraction Coiled [2]: 0.74
- Fraction Jerky-Unc [2]: 0.24
- Fraction No Phenotype [2]: 0.00
- Fraction Parayzed [2]: 0.0185
- Fraction Coiled [3]: 0.70
- Fraction Jerky-Unc [3]: 0.24
- Fraction No Phenotype [3]: 0.00
- Fraction Parayzed [3]: 0.0556
- Fraction Coiled [4]: 0.74
- Fraction Jerky-Unc [4]: 0.14
- Fraction No Phenotype [4]: 0.00
- Fraction Parayzed [4]: 0.12
- Fraction Coiled [5]: 0.72
- Fraction Jerky-Unc [5]: 0.15
- Fraction No Phenotype [5]: 0.00
- Fraction Parayzed [5]: 0.13
- Fraction Coiled (unc-17 (md414), 15 µM): 0.00
- Fraction Jerky-Unc (unc-17 (md414), 15 µM): 0.037
- Fraction No Phenotype (unc-17 (md414), 15 µM): 0.96
- Fraction Parayzed (unc-17 (md414), 15 µM): 0.00
- Fraction Coiled (unc-17 (md414), 30 µM): 0.00
- Fraction Jerky-Unc (unc-17 (md414), 30 µM): 0.0741
- Fraction No Phenotype (unc-17 (md414), 30 µM): 0.93
- Fraction Parayzed (unc-17 (md414), 30 µM): 0.00
- Fraction Coiled (unc-17 (md414), 60 µM): 0.00
- Fraction Jerky-Unc (unc-17 (md414), 60 µM): 0.24
- Fraction No Phenotype (unc-17 (md414), 60 µM): 0.76
- Fraction Parayzed (unc-17 (md414), 60 µM): 0.00
- Fraction Coiled (unc-17 (md414), 120 µM): 0.00
- Fraction Jerky-Unc (unc-17 (md414), 120 µM): 0.43
- Fraction No Phenotype (unc-17 (md414), 120 µM): 0.57
- Fraction Parayzed (unc-17 (md414), 120 µM): 0.00
- Fraction Coiled (unc-17 (md414), 240 µM): 0.037
- Fraction Jerky-Unc (unc-17 (md414), 240 µM): 0.61
- Fraction No Phenotype (unc-17 (md414), 240 µM): 0.35
- Fraction Parayzed (unc-17 (md414), 240 µM): 0.00
